{"source": "patent US6451857B1", "about": "“Analgesic compositions comprising anti-epileptic compounds and methods of using same” (Warner-Lambert Company, priority 1999, dated 2002)", "system": "carrageenan-induced thermal hyperalgesia", "assay": "Carrageenan rat footpad thermal hyperalgesia test (Hargreaves test)", "type": "in vivo", "source_text": "The aim of this experiment was to characterize the antinociceptive and anti-inflammatory effects of gabapentin administered in combination with a prototypic NSAID in the rat. […] This assay utilizes an extract of seaweed (carrageenan) that, when injected into the footpad of test animals, causes a sterile inflammation, thereby lowering the pain threshold.\nMale Sprague-Dawley rats (200-250 g, Sasco Laboratories) were used. Rats were group housed 5/cage on a 12-hour light:dark cycle with free access to food and water. Rats received only one dose of a drug or drug combination. All drugs were administered orally by gavage.\nDose-effect curves were first determined for (1) gabapentin by itself and (2) a prototypic NSAID (e.g., naproxen) by itself. The ED50 value and 95% confidence limits of each agent was determined, as was the time to peak effect. […]\nCarrageenan-induced thermal hyperalpesia: Rats were acclimated to a testing chamber whose glass floor was maintained at 25° C. Thirty minutes later, a high intensity beam of light was focused through the glass on the ventral surface of each hindpaw, and the latency to reflex withdrawal of the paw from the light beam was measured to the nearest 0.1 second. […] Response latencies for the ipsilateral and contralateral hindpaws were then re-determined 15, 30, 45, 60, 90 and 120 minutes later. […]\nData were expressed as the mean ±SEM. […]"}
{"smiles": "COc1ccc2cc([C@H](C)C(=O)O)ccc2c1", "note": "[Naproxen sodium, naproxen sodium]", "values": [{"measurement": "anti-hyperalgesic action", "setting": "PO, gabapentin 3-100 mg/kg, naproxen sodium 0.3-30 mg/kg, combinations in fixed ratio", "result": "caused anti-hyperalgesic actions"}, {"measurement": "ED50", "setting": "Rattus norvegicus, 2 h, single drug, oral gavage, male Sprague-Dawley rats, data 120 min after dosing, 95% confidence limits in parentheses", "result": 0.36, "unit": "mg/kg"}]}
